In ChEMBL document CHEMBL1201862, “PubChem BioAssay data set” (2004):
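Following 48 hours of exposure in 96-well plates, responses at five concentrations were used to interpolate endpoints linearly. Abbreviation: GI50, concentration required for 50% inhibition of growth.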 Calls of active or inactive are those of the source. Cut-off read from the data, not from the text of the source: active = GI50 up to about 1.1 µM and inactive = higher.

Key:
Experiment in all cases: NCI anticancer screen, dose series, 48 h
[1] = system: KM12
[2] = system: Malme-3M
[3] = system: SR
[4] = system: TK-10
[5] = system: PC-3
[6] = system: U-251
[7] = system: Hs-578T
[8] = system: HT-29
[9] = system: MDA-MB-231
[10] = system: HCC 2998
[11] = system: 786-0
[12] = system: EKVX
[13] = system: SNB-19
[14] = system: OVCAR-4
[15] = system: T47D
[16] = system: BT-549
[17] = system: HOP-62
[18] = system: UACC-257
[19] = system: MOLT-4
[20] = system: KM-20L2

Measured: GI50

COc1ccc(-c2cc3c(c4cc(OC)ccc24)C(=O)OC3=O)cc1
inactive: [1] > 100 µM | [2] > 100 µM | [3] > 100 µM | [4] > 100 µM | [5] > 100 µM | [6] > 100 µM | [7] > 100 µM | [8] > 100 µM | [9] > 100 µM | [10] > 100 µM | [11] > 100 µM | [12] > 100 µM | [13] > 100 µM | [14] > 100 µM | [15] > 100 µM | [16] > 100 µM | [17] > 100 µM | [18] > 100 µM | [19] > 100 µM

CN(C)CC1CN(C(=O)Nc2ccccc2)C(=N)O1 (stereo not given)
inactive: [1] > 100 µM | [2] > 100 µM | [3] > 100 µM | [4] > 100 µM | [5] > 100 µM | [6] > 100 µM | [7] > 100 µM | [8] > 100 µM | [9] > 100 µM | [10] > 100 µM | [11] > 100 µM | [12] > 100 µM | [13] > 100 µM | [14] > 100 µM | [15] > 100 µM | [16] > 100 µM | [17] > 100 µM | [18] > 100 µM | [19] > 100 µM

O=C(NC(Cc1c[nH]c2ccccc12)C(=O)O)/C(=C/c1ccccc1)NC(=O)c1ccccc1 (stereo not given)
inactive: [1] 57.9 µM | [2] 22.5 µM | [3] > 100 µM | [4] > 72.8 µM | [5] 50.5 µM | [6] 46.8 µM | [7] 28.5 µM | [8] 66.7 µM | [9] > 44.6 µM | [10] 78.3 µM | [11] > 100 µM | [12] 42.7 µM | [13] > 92 µM | [14] 71.1 µM | [15] 36.2 µM | [16] 43.8 µM | [17] 41.3 µM | [18] > 88.7 µM | [19] 51.1 µM

COc1ccc2c(c1)CN1C(=N2)CSC1c1c(Cl)cccc1[N+](=O)[O-] (stereo not given)
inactive: [1] 19.5 µM | [2] 30.2 µM | [3] 15.6 µM | [4] 28.2 µM | [5] 23.8 µM | [6] 18.7 µM | [7] 24.7 µM | [8] 17.9 µM | [9] 16.4 µM | [10] 22.7 µM | [11] 25.9 µM | [12] 25.4 µM | [13] 29.9 µM | [14] 31.5 µM | [15] 31 µM | [16] 14.9 µM | [17] 34.3 µM | [18] 17.2 µM | [19] 12.6 µM

c1ccc2c(c1)c1ccccc1c1n[se]nc21
inactive: [1] > 100 µM | [2] > 100 µM | [20] > 100 µM | [4] 48.4 µM | [6] > 100 µM | [8] 57 µM | [11] 39 µM | [12] 87.9 µM | [13] 35.6 µM | [14] > 100 µM | [18] > 100 µM | [19] > 100 µM

O=[N+]([O-])C(=C(N1CCOCC1)N1CCOCC1)/C(Cl)=C(\Cl)[N+](=O)[O-]
inactive: [1] 16.3 µM | [2] 1.68 µM | [3] 8.77 µM | [4] 1.99 µM | [5] 16.4 µM | [6] 18.9 µM | [7] 1.18 µM | [8] 4.1 µM | [9] 3.85 µM | [10] 20.4 µM | [11] 3.69 µM | [12] 8.73 µM | [13] 25.8 µM | [14] 16 µM | [15] 1.96 µM | [16] 4.59 µM | [17] 15.7 µM | [18] 5.55 µM | [19] 17.2 µM

C[C@H](CCC(=O)NCCS(=O)(=O)O)[C@H]1CC[C@H]2[C@@H]3CC[C@@H]4C[C@H](O)CC[C@]4(C)[C@H]3CC[C@]12C
inactive: [1] > 100 µM | [2] > 100 µM | [3] 28.7 µM | [4] > 100 µM | [5] > 100 µM | [6] > 100 µM | [7] > 100 µM | [8] > 100 µM | [9] > 100 µM | [10] > 100 µM | [11] > 100 µM | [12] > 100 µM | [13] > 100 µM | [14] > 100 µM | [15] > 100 µM | [16] > 100 µM | [17] > 100 µM | [18] > 100 µM | [19] 91 µM

O=P(O)(O)OP(=O)(O)O
inactive: [1] > 100 µM | [2] > 100 µM | [3] > 100 µM | [4] > 100 µM | [5] > 100 µM | [6] > 100 µM | [7] > 100 µM | [8] > 100 µM | [9] > 100 µM | [10] > 100 µM | [11] > 100 µM | [12] > 100 µM | [13] > 100 µM | [14] > 100 µM | [15] > 100 µM | [16] > 100 µM | [17] > 100 µM | [18] > 100 µM | [19] > 100 µM
